Experiments:
[1] = tested on: lymphatic intercellular junctions; details: mouse, in vivo; cited from earlier work
[2] = tested on: lymphatic endothelial cell (LEC) monolayers; details: cited from earlier work
[3] = target: CRSBP-1 (Mus musculus, UniProt Q8BHC0); details: cited from earlier work
[4] = tested on: pseudorabies virus (PRV); parameters: species or system pigs; details: pig, in vivo

CRSBP-1, sequence (Q8BHC0 24-318): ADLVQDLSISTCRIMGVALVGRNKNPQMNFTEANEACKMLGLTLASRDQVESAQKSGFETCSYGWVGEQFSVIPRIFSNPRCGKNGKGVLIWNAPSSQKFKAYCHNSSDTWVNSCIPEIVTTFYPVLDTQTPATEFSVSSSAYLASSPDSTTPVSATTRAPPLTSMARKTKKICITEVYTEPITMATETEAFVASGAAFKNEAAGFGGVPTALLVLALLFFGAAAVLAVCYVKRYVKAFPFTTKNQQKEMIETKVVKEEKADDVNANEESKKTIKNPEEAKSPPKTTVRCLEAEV

polyarginine
activity in control experiments as compared to VEGF peptide and PDGF peptide [1]: very weak activity

polylysine
activity in control experiments as compared to VEGF peptide and PDGF peptide [1]: very weak activity

KKSVRGKGKGQKRKRKKSRYKSWSV [VEGF peptide]
disruption of VE-cadherin-mediated discontinuous intercellular adhesion and opening of intercellular junctions [2]: induce disruption
binding to CRSBP-1 [3]: high affinity

YVRVRRPPKGKHRKFKHTH [PDGF peptide]
disruption of VE-cadherin-mediated discontinuous intercellular adhesion and opening of intercellular junctions [2]: induce disruption
increase in serum antibody titer as compared to vaccine only [4]: ~4 fold
binding to CRSBP-1 [3]: high affinity

Source: US20140271723A1 (priority 2013, published 2014)
